{"source": "patent US20070038384A1", "about": "“Devices and assays for monitoring/measuring cellular dynamics to create subject profiles from primary cells” (priority 2003, published 2007)", "assay_type_in_all_cases": "cell-based", "key": {"[1]": {"system": "SVR (H-ras-overexpressing derivative of MS1)", "experiment": "Farnesyl transferase inhibition, cell motility assay in SVR", "conditions": "SVR cells, FTI-277 10 mm, time zero and four hours, versus control", "procedure": "(§1) Using standard protocols, MS1 (T antigen-immortalized endothelial cells, ATCC) and SVR (H-ras-overexpressing derivative of MS1, ATCC) were plated into macrowells at densities of 12×10^3 and 6×10^3 cells/cm^2, respectively, in DMEM/5% fetal bovine serum. Unattached cells were washed off after 1 hour, and the cells were replenished with fresh media. To the media was also added farnesyl transferase inhibitor (FTI-277, Calbiochem) to concentration of […]. Cells were cultured overnight under fresh media in an incubator at 37° C. and 5% CO2. At the start of experiment, the stencil/first layer was removed after first on the support to allow cell migration. At different time points (time zero and time four hours) images were taken and analyzed for effects of FTI-277 on cell motility. FIG. 21 contains the pictorial results of an assay showing farnesyl transferase inhibition in MS1 and SVR cells."}, "[2]": {"system": "MS1 (T antigen-immortalized endothelial cells)", "experiment": "Farnesyl transferase inhibition, cell motility assay in MS1", "conditions": "FTI-277 10 mm, time zero and four hours, versus control", "procedure": "as §1"}, "[3]": {"system": "HK-2 (proximal tubule cells from human kidney)", "experiment": "Inhibition of cell motility of renal cells via MMP inhibition, HK-2", "conditions": "HK-2, various concentrations", "procedure": "(§2) Two renal cell lines were used to study the effect of matrix metalloproteinase (MMP) inhibition on cell motility. Standard protocols were used to plate 100 769-P cells (renal carcinoma, purchased from ATCC) and HK-2 (proximal tubule cells from human kidney, from ATCC) in qualitative cell migration assay plate.\n(§3) After allowing the cells to attach and spread for 8 hours, the stencil and the first layer were removed and MMP inhibitor (GM6001, Calbiochem) was added at various concentrations."}, "[4]": {"system": "769-P cells (renal carcinoma)", "experiment": "Inhibition of cell motility of renal cells via MMP inhibition, 769-P", "conditions": "various concentrations", "procedure": "as §2, §3"}, "[5]": {"system": "Human microvasular endothelial cells from lung (HMVEC-L)", "experiment": "Microtubule experiments, cell motility/patterning assay", "conditions": "circular micro-orifice, versus control; agents 10 mg/ml in Example 8", "procedure": "Alternatively, the test agent can be added before the cells have grown to confluency, i.e. the test agent is added to the cells before being patterned through the micro-orifices 300. If the test agent has no effect on cell motility, the cells will spread and achieve the shape of the micro-orifice 300. In FIGS. 16 and 17, a micro-orifice 300 is circular in shape. In the left column of FIGS. 16 and 17 are the control panel, which illustrate the cells having grown to a confluent circular pattern.\nA first layer 150 having multiple orifices was applied to a support 140. The orifices ([…]) were rendered inert to the adsorption of proteins and the adhesion of cells using the standard procedures described in earlier disclosures: silanes terminated with ethylene glycol groups were reacted covalently with the surface of the PDMS devices. The stencil was washed three times with PBS, and vacuum was applied for two minutes to remove air bubbles. Human microvasular endothelial cells from lung (HMVEC-L, Clonetics/Biowhittaker), were seeded into the macro-wells of the stencil at a density of 5×10^3 cells/cm2 into the dishes in growth medium (EGM, Clonetics/Biowhittaker), and washed with fresh medium after an initial attachment period of 30 minutes to one hour. After an overnight incubation in the membranes, cells were treated with the following microtubule-disrupting agents: nocodazole (10 mg/ml), colchicine (10 mg/ml), vinblastine (10 mg/ml), or paclitaxel (10 mg/ml). Control cells were left untreated. Two different experiments were then performed. In the first experiment, cells were treated with the compounds while maintained within the macro-wells of the stencil. After two hours of treatment, the cells were imaged, the stencil was peeled off, and the cells were fixed with cold methanol (−20° C.) for ten minutes and washed three times with PBS. Immunofluorescence staining was performed using a monoclonal antibody to alpha-tubulin (1:100 dilution, DM1a, Sigma), followed by a FITC-conjugated goat anti-mouse antibody (25 mg/ml, Rockland Immunochemicals) and DAPI (3 mg/ml, Sigma) to stain the nucleus. Stained cells were mounted under a glass coverslip with Fluoromount G (Southern Biotechnology Associates) and imaged in a Zeiss fluorescence microscope.\nIn the second experiment, the stencil was peeled at the time of compound addition. After two hours of treatment, one set of samples was fixed and stained as described above. Another set of samples was left in the treatment compound and imaged over time, to monitor cell motility. Images were taken at 0, 2, 4, 8, and 24 hours. Cell motility was determined by taking the average diameter of the micro-regions, using ImageProPlus imaging software."}, "NIH-3T3 fibroblast cells": {"system": "NIH-3T3 fibroblast cells", "experiment": "Cell migration/motility assay, 3T3/TAXOL", "conditions": "2 hours and 5 hours after removal of first layer, versus control cells", "excerpt": "The cell migration/motility assay of the present invention allows one to study the effect of test agents and others both on cell motility and on cell shape. For example, cells may be patterned through micro-orifices, such as micro-orifices 300, of the first layer 150. The cells are allowed to attach to the support 140 and to grow to confluence. The walls of the micro-orifice 300 constrain the cell(s) and the cells take on the shape of the micro-orifice 300, e.g., circular. A test agent is applied through the micro-orifices 300 and is allowed to contact the cells. The first layer 150 is removed and the cells are observed. If the test agent affects cell movement, the cell will be “stuck” in place as it was patterned and may not change shape, i.e., it will remain circular if the patterning member had circular orifices. […] FIG. 15(b) is a graph of the effect of various concentrations of taxol on cell movement as performed by a cell migration/motility assay of the present invention.\nMacro-wells orifices of a stencil engaged with a support were filled with PBS and a vacuum was applied for two minutes to remove air bubbles. NIH-3T3 fibroblast cells (prelabeled with green cell tracker, CMFDA, Molecular Probes) were collected in DMEM/10% bovine calf serum and plated in the macro-wells at a concentration of 2×10^4 cells/cm2. After one hour, unadhered cells were washed off with fresh medium. […]"}, "endothelial cells": {"system": "endothelial cells", "experiment": "Cell motility assay using endothelial cells with agonists and antagonists (FIG. 25)", "conditions": "FIG. 25A", "procedure": "FIG. 25 depicts a particular cell motility assay using endothelial cells and agonists and antagonists of such cells. […] In FIG. 25B, the concentration of VEGF is fixed. An antibody to VEGF is added in various concentrations. […] When an inhibitor to the VEGF receptor is added, the cells migrate at a such slower rate as depicted in FIG. 25C. […] Normally enzyme inhibition screens involve proteins and their substrates and not cells. FIG. 25D depicts enzyme inhibition screens in a cell based context."}}, "data": [{"compound": "COC(=O)[C@H](CCSC)NC(=O)c1ccc(NC[C@@H](N)CS)cc1-c1ccccc1", "note": "[FTI-277]", "values": [{"measurement": "cell migration away from original starting positions", "setting": "[1]", "result": "control cells are shown to have migrated further away from their original starting positions than the cells treated with FTI"}, {"measurement": "cell migration away from original starting positions", "setting": "[2]", "result": "control cells are shown to have migrated further away from their original starting positions than the cells treated with FTI"}]}, {"compound": "CNC(=O)[C@H](Cc1c[nH]c2ccccc12)NC(=O)[C@@H](CC(=O)NO)CC(C)C", "note": "[GM6001]", "values": [{"measurement": "cell motility", "setting": "[3]", "result": "no effect"}, {"measurement": "cell motility", "setting": "[4]", "result": "reduces cell motility"}]}, {"compound": "COc1cc2c(c(OC)c1OC)-c1ccc(OC)c(=O)cc1[C@@H](NC(C)=O)CC2", "note": "[colchicine]", "values": [{"measurement": "cellular movement / achieving circular confluent pattern", "setting": "[5]", "result": "cellular movement arrested"}]}, {"compound": "COC(=O)Nc1nc2ccc(C(=O)c3cccs3)cc2[nH]1", "note": "[nocodazole]", "values": [{"measurement": "cellular movement / achieving circular confluent pattern", "setting": "[5]", "result": "cellular movement arrested"}]}, {"compound": "CC(=O)O[C@H]1C(=O)[C@@]2(C)[C@H]([C@H](OC(=O)c3ccccc3)[C@]3(O)C[C@H](OC(=O)[C@H](O)[C@@H](NC(=O)c4ccccc4)c4ccccc4)C(C)=C1C3(C)C)[C@]1(OC(C)=O)CO[C@@H]1C[C@@H]2O", "note": "[taxol, paclitaxel]", "values": [{"measurement": "cellular movement / achieving circular confluent pattern", "setting": "[5]", "result": "cellular movement arrested"}, {"measurement": "cell movement away from original pattern", "setting": "NIH-3T3 fibroblast cells", "result": "retained their original circular pattern"}]}, {"compound": "CC[C@]1(O)C[C@@H]2CN(CCc3c([nH]c4ccccc34)[C@@](C(=O)OC)(c3cc4c(cc3OC)N(C)[C@H]3[C@@](O)(C(=O)OC)[C@H](OC(C)=O)[C@]5(CC)C=CCN6CC[C@]43[C@@H]65)C2)C1", "note": "[vinblastine]", "values": [{"measurement": "cellular movement / achieving circular confluent pattern", "setting": "[5]", "result": "cellular movement arrested"}]}, {"compound": "VEGF", "values": [{"measurement": "cell migration", "setting": "endothelial cells", "result": "stimulates cells to migrate"}]}]}
